Measurements taken from paper PMC5681660, “Reduced hepatitis B and D viral entry using clinically applied drugs as novel inhibitors of the bile acid transporter NTCP” (Scientific Reports, 2017).
Where a name gives a salt, the structure may show the parent alone. Read-outs that look alike come from different tables or passages of the source.

How the values were obtained:
human NTCP [1] = molecular target: T1, human NTCP (Homo sapiens, UniProt Q14973); assay: Screening taurocholate uptake assay (96-well, [14C]taurocholate, 10 µM drug)
T1 sequence (Q14973 1-349): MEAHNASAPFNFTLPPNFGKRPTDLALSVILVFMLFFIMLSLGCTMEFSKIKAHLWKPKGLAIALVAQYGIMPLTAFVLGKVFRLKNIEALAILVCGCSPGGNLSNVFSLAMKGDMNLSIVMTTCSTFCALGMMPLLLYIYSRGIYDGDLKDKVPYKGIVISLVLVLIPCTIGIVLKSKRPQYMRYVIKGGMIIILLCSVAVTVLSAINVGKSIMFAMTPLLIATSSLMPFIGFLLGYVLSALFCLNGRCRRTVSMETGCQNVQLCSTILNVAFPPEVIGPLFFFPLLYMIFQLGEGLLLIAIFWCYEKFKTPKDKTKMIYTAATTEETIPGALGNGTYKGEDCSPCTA

human NTCP [2] = molecular target: T1, human NTCP; assay: Screening fluorescent competitive Myrcludex B-FITC binding assay (96-well, 10 µM drug)
[3] = combined ranking from functional and binding screening assays
[4] = screen, 10 µM drug, taurocholate uptake
[5] = screen, 10 µM drug, Myrcludex B-FITC binding
[6] = Prestwick library screen, taurocholate uptake, 10 µM drug
[7] = ranking score beside the functional and binding assay B-scores of the screen
[8] = Prestwick library screen, Myrcludex B-FITC binding, 10 µM drug
[9] = Prestwick library screen, 10 µM drug, B-score of taurocholate uptake
[10] = combined ranking from functional and binding assay B-scores
[11] = Prestwick library screen, 10 µM drug, B-score of Myrcludex B-FITC binding

Row | Structure (SMILES) | Ranking score (human NTCP [1]; [3]) | B-score functional assay (human NTCP [1]; [4]) | B-score binding assay (human NTCP [2]; [5]) | B-score functional assay (human NTCP [1]; [6]) | Ranking score (human NTCP [1]; [7]) | B-score binding assay (human NTCP [2]; [8]) | B-score functional assay (human NTCP [1]; [9]) | Ranking score (human NTCP [1]; [10]) | B-score binding assay (human NTCP [2]; [11]) | also measured
1 | CC(C)NC[C@@H](O)COc1cccc2ccccc12.Cl [(R)-Propranolol hydrochloride] | – | – | – | – | – | – | – | – | – | B-score functional assay (human NTCP [1]): 1.016; Ranking score (human NTCP [1]): 935.855; B-score binding assay (human NTCP [2]): 0.252
2 | CC(C)NC[C@H](O)COc1ccc(CC(N)=O)cc1 [(S)-(-)-Atenolol] | 412.97 | -0.386 | -0.394 | – | – | – | – | – | – | –
3 | C[C@H]1O[C@H](O[C@H]2[C@H](O)[C@@H](O)[C@@H](O[C@H]3[C@H](O)[C@@H](O)C(O)O[C@@H]3CO)O[C@@H]2CO)[C@H](O)[C@@H](O)[C@@H]1N[C@H]1C=C(CO)[C@@H](O)[C@H](O)[C@H]1O (stereo partly drawn) [Acarbose] | – | – | – | 1.632 | 792.136 | -0.109 | – | – | – | –
4 | CCCC(=O)Nc1ccc(OCC(O)CNC(C)C)c(C(C)=O)c1 (stereo not drawn) [Acebutolol hydrochloride] | – | – | – | – | – | – | 1.681 | 904.34 | 0.049 | –
5 | O=C(O)COC(=O)Cc1ccccc1Nc1c(Cl)cccc1Cl [Aceclofenac] | 377.221 | -0.535 | -0.456 | – | – | – | – | – | – | –
6 | Cn1c(=O)c2c(ncn2CC(=O)O)n(C)c1=O [Acefylline] | – | – | – | – | – | – | 0.41 | 910.022 | 0.607 | –
7 | COc1ccc2c(c1)c(CC(=O)OCC(=O)O)c(C)n2C(=O)c1ccc(Cl)cc1 [Acemetacin] | – | – | – | 0.011 | 813.791 | 0.865 | – | – | – | –
8 | CC(=O)CC(c1ccc([N+](=O)[O-])cc1)c1c(O)c2ccccc2oc1=O (stereo not drawn) [Acenocoumarol] | – | – | – | – | – | – | 0.873 | 950.096 | 0.383 | –
9 | CC(=O)Nc1nnc(S(N)(=O)=O)s1 [Acetazolamide] | – | – | – | 0.532 | 696.956 | -0.137 | – | – | – | –
10 | CC(=O)c1ccc(S(=O)(=O)NC(=O)NC2CCCCC2)cc1 [Acetohexamide] | – | – | – | – | – | – | 0.057 | 875.07 | 1.192 | –
11 | CC(=O)c1ccc2c(c1)N(CCCN(C)C)c1ccccc1S2.O=C(O)/C=C\C(=O)O [Acetopromazine maleate salt] | 331.723 | 0.92 | -2.054 | – | – | – | – | – | – | –
12 | CC(=O)Oc1ccccc1C(=O)Oc1ccccc1C(=O)O [Acetylsalicylsalicylic acid] | – | – | – | 0.347 | 734.743 | -0.007 | – | – | – | –
13 | Cc1cnc(C(=O)O)c[n+]1[O-] [Acipimox] | – | – | – | – | – | – | 0.91 | 894.262 | 0.142 | –
14 | COc1cc(C)c(/C=C/C(C)=C/C=C/C(C)=C/C(=O)O)c(C)c1C [Acitretin] | 302.82 | 0.046 | -1.766 | – | – | – | – | – | – | –
15 | CC(=O)Nc1ccc(CC(=O)O)cc1 [Actarit] | – | – | – | -0.304 | 719.277 | 1.648 | – | – | – | –
16 | Nc1nc2c(ncn2COCCO)c(=O)[nH]1 [Acyclovir] | – | – | – | 0.026 | 658.696 | 0 | – | – | – | –
17 | NC12CC3CC(CC(C3)C1)C2.O=C(O)/C=C/C(=O)O [Adamantamine fumarate] | – | – | – | -0.004 | 748.28 | 0.399 | – | – | – | –
18 | Nc1ncnc2c1ncn2[C@@H]1O[C@H](COP(=O)(O)O)[C@@H](O)[C@H]1O.O [Adenosine 5'-monophosphate monohydrate] | – | – | – | – | – | – | 0.641 | 1091.98 | 2.827 | –
19 | CCN(CC)CCOC(=O)C(c1ccccc1)c1ccccc1 [Adiphenine hydrochloride] | 440.174 | -0.012 | -0.701 | – | – | – | – | – | – | –
20 | C[C@]12CCC(=O)C=C1CC[C@@H]1[C@@H]2C(=O)C[C@]2(C)C(=O)CC[C@@H]12 [Adrenosterone] | 291.781 | -0.902 | -0.699 | – | – | – | – | – | – | –
